Assay results as given in patent EP1282414B1, “FELBAMATE DERIVED COMPOUNDS FOR TREATING NEUROPATHIC PAIN” (University of Virginia Patent Foundation, priority 2000, dated 2001).

Legend:
[1] = Minimal neurotoxicity (TOX), positional sense and gait and stance tests, rats p.o.; assay type: in vivo; details: in vivo, po; rat
Excerpt: (§1) The fluoro derivatives synthesized were submitted to the National Institute of Neurological Disorders and Stroke (NINDS) for evaluation in a standard panel of assays. Two convulsant tests (MES and scMET), and a toxicity screen (rotorod in mice, positional sense and gait in rats) were employed for evaluating the compounds activity as neuroprotecting agents. These testing procedures are described in detail in Molecular and Cellular Targets for Anti-epileptic Drugs, eds. […] The felbamate derivatives were evaluated for anticonvulsant activity following intraperitoneal (i.p.) administration in mice and oral administration in rats.
(§2) Rats are examined for behavioral toxicity by the positional sense test and a gait and stance test. […] In the gait and stance test, neurotoxicity is indicated by a circular or zigzag gait, ataxia, abnormal spread of the legs, abnormal posture, tremor hyperactivity, lack of exploratory behavior, somnolence, stupor or catalepsy. […]

rats = test: as above; assay type: in vivo; details: for TOX, number of animals exhibiting toxic effects / total number of animals tested: rat p.o., 30 mg/kg
Excerpt: as §1, §2

pentylenetetrazol [2] = test: Subcutaneous Metrazol seizure test (scMET), mice i.p.; assay type: in vivo, Carworth Farms No. 1 mice; details: for ScMET, number of animals protected / total number of animals tested: mice i.p.
Excerpt: (§3) The fluoro derivatives synthesized were submitted to the National Institute of Neurological Disorders and Stroke (NINDS) for evaluation in a standard panel of assays. Two convulsant tests (MES and scMET), and a toxicity screen (rotorod in mice, positional sense and gait in rats) were employed for evaluating the compounds activity as neuroprotecting agents. These testing procedures are described in detail in Molecular and Cellular Targets for Anti-epileptic Drugs, eds. G. Avanzini, G. Regesta, P. Tanganelli, M. Avoli, 1997, John Libbey & Company Ltd, pp 191-198. The felbamate derivatives were evaluated for anticonvulsant activity following intraperitoneal (i.p.) administration in mice and oral administration in rats.
This is a model that primarily identifies compounds that raise seizure threshold. With some minor exceptions, the pharmacological profile of the scMET seizure model is consistent with the human condition. The scMET test utilizes a dose of pentylenetetrazol (85 mg/kg in Carworth Farms No. 1 mice and 70 mg/kg in Sprague-Dawley rats) that induces clonic seizures lasting for a period of at least five seconds in 97 % (CD97) of animals tested. At the anticipated time of testing the convulsant is administered subcutaneously. The test compound is administered intraperitoneally in mice and orally in rats. Animals are observed over a 30 minute period. Absence of clonic spasms in the observed time period indicates a compound's ability to abolish the effect of pentylenetetrazol on seizure threshold.
For the MES and scMET tests the data is presented in the form of the number of animals protected by the administered compound / total number of animals tested. […] Qualitative data was obtained for fluoro felbamate 12 (Tables 1 and 2A), fluoro monocarbamate felbamate 13 (Tables 1 and 2B), and fluorodioxo 16 (Tables 1 and 2C) and for cyclic felbamate 21 (Tables 5 and 6B) and cyclic monocarbamate 22 (Tables 5 and 6A). More extensive quantitative data was also obtained for fluoro felbamate 12 in mice (Table 3) and rats (Table 4).

pentylenetetrazol [3] = test: Subcutaneous Metrazol seizure test (scMET), rats p.o.; assay type: in vivo, Sprague-Dawley rats; details: po, rat
Excerpt: as §3
This is a model that primarily identifies compounds that raise seizure threshold. With some minor exceptions, the pharmacological profile of the scMET seizure model is consistent with the human condition. […]
For the MES and scMET tests the data is presented in the form of the number of animals protected by the administered compound / total number of animals tested. […] More extensive quantitative data was also obtained for fluoro felbamate 12 in mice (Table 3) and rats (Table 4).

In the case of `NC(=O)OCC(F)(COC(N)=O)c1ccccc1` [fluoro felbamate, 2-Fluoro-2-phenyl-1,3-propanediol dicarbamate], the ED50 [1] is reported as > 500 mg/kg, the “TOX, number of animals exhibiting toxic effects / total number of animals tested” value (rats; 0.25h) is reported as 0/4 and the “TOX, number of animals exhibiting toxic effects / total number of animals tested” value (rats; 0.5h) is reported as 0/4. For the same compound, the “TOX, number of animals exhibiting toxic effects / total number of animals tested” value (rats; 1.0h) was 0/4, the “TOX, number of animals exhibiting toxic effects / total number of animals tested” value (rats; 2.0h) was 0/4 and the “TOX, number of animals exhibiting toxic effects / total number of animals tested” value (rats; 4.0h) was 1/4. The “no toxicity at doses up to” value (rats; rats, oral administration) was “up to 500 mg/kg”, the ED50 (pentylenetetrazol [2]; Mus musculus, ip, read-out: ScMET ED50) was > 160 mg/kg and the “ScMET, number of animals protected / total number of animals tested” value (pentylenetetrazol [2]; 30 mg/kg, 0.5h) was 0/1. The “ScMET, number of animals protected / total number of animals tested” value (pentylenetetrazol [2]; 30 mg/kg, 4.0h) was 0/1, the “ScMET, number of animals protected / total number of animals tested” value (pentylenetetrazol [2]; 100 mg/kg, 0.5h) was 0/1 and the “ScMET, number of animals protected / total number of animals tested” value (pentylenetetrazol [2]; 100 mg/kg, 4.0h) was 0/1. For the same compound, the “ScMET, number of animals protected / total number of animals tested” value (pentylenetetrazol [2]; 300 mg/kg, 0.5h) was 0/1, the “ScMET, number of animals protected / total number of animals tested” value (pentylenetetrazol [2]; 300 mg/kg, 4.0h) was 0/1 and the ED50 (pentylenetetrazol [3]) was > 250 mg/kg.
